Publication PMC5360416 (Journal of pharmaceutical sciences, 2014)
Structures can show the parent of a compound that is named as a salt.

What was measured:
[1] = Short-term lung toxicity, bronchoalveolar lavage; assay type: in vivo, rat; settings: 12 hrs
[2] = Pharmacokinetics in adult male SD rats; assay type: in vivo, rat; settings: 6 mg/kg; for AUC(0-inf) / Cmax: male, Sprague-Dawley, rat, plasma
MCT induced PAH rats = assay: Acute hemodynamic efficacy in MCT induced PAH rats; assay type: in vivo, rat; settings: 3 mg/kg
[3] = stated without reference, cited from earlier work
[4] = 0.1% SDS, compared with CAR-micelles and plain drug

## CCCCCCCCCCCCOS(=O)(=O)[O-].[Na+] [SDS, sodium dodecyl sulfate]
[1]; [4]
  ALP level in BAL fluid: elevated levels
  LDH level in BAL fluid: elevated levels
[1]; intratracheal, CAR-micelles equivalent to 6 mg/kg fasudil, SDS 0.1%
  wet lung weight compared to saline treated rats: two-fold
Rat PASM cells
  cell viability: ~16%

## O=S(=O)(c1cccc2cnccc12)N1CCCNCC1 [Fasudil, Fasudil hydrochloride]
[2]; IT
  time after which no plasma concentration was shown: 6 h
[2]; IV
  time after which no plasma concentration was shown: 2 h
[2]; inhaled or intranasal
  AUC(0-inf): 21700 ± 4080 ng·h/mL
  Cmax: 1450 ± 580 ng/mL
[2]; iv
  AUC(0-inf): 27600 ± 3910 ng·h/mL
  Cmax: 3780 ± 230 ng/mL
MCT induced PAH rats; plain fasudil IT
  reduction in MPAP, IT versus IV: more pronounced reduction in MPAP than IV fasudil
MCT induced PAH rats; plain fasudil IV and IT
  reduction in MSAP: significant reduction
[3]; methanol
  solubility in methanol: moderately soluble
[3]; water
  solubility in water: ~200 mg/mL
